The values that follow come from US8343996B2, “Azaquinolinone derivatives and uses thereof” (AstraZeneca AB, priority 2008, dated 2013).

The assay relates to farnesyl transferase (FTase). As to the kind of experiment: Cytosolic Ras assay for measurement of farnesyl transferase activity (RAS Cell Assay). The assay is classed as cell-based, African green monkey. The conditions noted are these: COS-7 cells, 24 hr treatment in 0.2% DMSO; cytosolic Ras by Western blot, Ras/actin ratio. The text has this: Ras is a small GTP binding protein whose farnesylation and consequent membrane association can be reduced by inhibition of farnesyl transferase (Appels et al., Oncologist 10:565-578, 2005; Basso et al., J. Lipid Res. 47:15-31, 2006; Tamanoi, Trends Biochem. Sci. 18:349-353, 1993; each of which is incorporated herein by reference). […] Treatment with a compound of the invention reduces the farnesylation and membrane association of Ras, leading to accumulation of Ras in the cytosol of the cells. An assay was developed to monitor FTase activity, based on the amount of Ras present in the cytosolic fraction of COS-7 cells after FTI treatment. On day 0, COS-7 cells were passaged into 6-well plates at a density of 4×10^5 cells/well. Beginning on day 1, cells were treated with a compound of the invention in 0.2% DMSO for 24 hr. On day 2, cells were lysed by passage through a 25 gauge needle 10 times in 100 μl Buffer 1 (50 mM Tris, 140 mM NaCl, 2 mM EDTA, protease inhibitor cocktail, pH 7.4) and lysates were centrifuged at 16,000 g for 30 min to isolate the cytosolic fraction (supernatant). The cytosolic fraction was analyzed by Western blot using anti-Ras antibody and anti-actin antibody for loading control. Results were quantified based on densitometric analysis of Ras signal normalized to actin signal (Ras/actin ratio). Treatment with a compound of the invention increases the amount of Ras in the cytosolic fraction in a dose-dependent manner. Using this method, compounds of the invention were analyzed for their ability to inhibit FTase activity, in that an increase in the Ras/actin ratio indicates inhibition of FTase.

“And” between values parts separate entries of the source, which are not always exact repeats. Equal values may be shown once.

As for `C#Cc1cccc(-c2cc(=O)n(C)c3ncc([C@@](O)(c4ccc(Cl)cc4)c4cncn4C)cc23)c1` [Compound 4a], the IC50 (commonly the concentration at which inhibition is half-maximal) amounted to 300 nM.
As for `C#Cc1cccc(-c2cc(=O)n(C)c3ncc([C@](O)(c4ccc(Cl)cc4)c4cncn4C)cc23)c1` [Compound 4b], the figure is 0.57 nM and 0.54 nM; as for `COc1cccc(-c2cc(=O)n(C)c3ncc([C@](N)(c4ccc(Cl)cc4)c4cncn4C)cc23)c1` [Compound 5a, 6-(amino(4-chlorophenyl)(1-methyl-1H-imidazol-5-yl)methyl)-4-(3-methoxyphenyl)-1-methyl-1,8-naphthyridin-2(1H)-one], 3.9 nM and 2 nM; as for `COc1cccc(-c2cc(=O)n(C)c3ncc([C@@](N)(c4ccc(Cl)cc4)c4cncn4C)cc23)c1` [Compound 5b, 6-(amino(4-chlorophenyl)(1-methyl-1H-imidazol-5-yl)methyl)-4-(3-methoxyphenyl)-1-methyl-1,8-naphthyridin-2(1H)-one], 300 nM.
Consider `COc1cccc(-c2cc(=O)n(C)c3ncc([C@](O)(c4ccc(Cl)cc4)c4cncn4C)cc23)c1` [Compound 6a, 6-((4-chlorophenyl)(hydroxy)(1-methyl-1H-imidazol-5-yl)methyl)-4-(3-methoxyphenyl)-1-methyl-1,8-naphthyridin-2(1H)-one], for which the IC50 was 2.3 nM and 4.2 nM.
Next, `COc1cccc(-c2cc(=O)n(C)c3ncc([C@@](O)(c4ccc(Cl)cc4)c4cncn4C)cc23)c1` [Compound 6b, 6-((4-chlorophenyl)(hydroxy)(1-methyl-1H-imidazol-5-yl)methyl)-4-(3-methoxyphenyl)-1-methyl-1,8-naphthyridin-2(1H)-one]: 190 nM.
